# Laboratory results reported in patent US20040219173A1, “METHOD FOR TREATING HIV” (priority 2000, published 2004).
# Where two headings read alike, the source gives them in different places.
# Key:
# [1] = cited from earlier work
# [2] = Complications from use of the NaCl tablets in the test subjects; assay type: in vivo, human; settings: Example II, 12 subjects, 250 mg tablets
# Experimental: 12 representative persons would be treated by the inventive method, but with a 250 mg tablet of solid NaCI (except certain other ingredients also are incorporated into the tablets, for a total of 250 mg, for test subject nos. 11 and 12, as further discussed below).
compound,measurement,setting,value
"[Cl-].[Na+] [NaCI, sodium chloride]",saturation in water,[1]; 0°C,about 35.7 % by weight
same,saturation in water,"[1]; room temperature (72°F, 22.2°C)",about 32.6 % by weight
same,complications from use of the tablets,[2],No complications
